Measurements from patent US11807644B2 (PMV Pharmaceuticals, Inc., priority 2020, dated 2023).

Target: T1, recombinant His-tag Y220C p53 DBD protein (Homo sapiens, UniProt P04637, Y220C)
T1 construct: recombinant His-tag Y220C p53 DBD protein (amino acids #˜94-312)
Experiment: In vitro DNA binding activity assay (TR-FRET): binding of His-tag Y220C p53 DBD to biotin-labeled consensus DNA
Assay type: biochemical
Conditions: SC150 = concentration to increase DNA binding by […], His-tag Y220C p53 DBD, biotin-labeled consensus DNA

| Y220C SC150 (μM) | SMILES |
| --- | --- |
| * (* = 0 μM ≤ SC150 < 0.1 μM) | CN1CC[C@@H](Nc2cccc3c2cc(-c2noc(CNC(=O)[C@@H]4C[C@H]4c4cccc(F)c4)n2)n3CC(F)(F)F)[C@@H](F)C1 [Compound 235B, (1R,2R)-N-{[3-(4-{[(3S,4R)-3-fluoro-1-methylpiperidin-4-yl]amino}-1-(2,2,2-trifluoroethyl)-1H-indol-2-yl)-1,2,4-oxadiazol-5-yl]methyl}-2-(3-fluorophenyl)cyclopropane-1-carboxamide] |
| * (* = 0 μM ≤ SC150 < 0.1 μM) | CC(CO)n1ccc(C(=O)NCc2nc(-c3cc4c(N[C@@H]5CCN(C)C[C@@H]5F)cccc4n3CC(F)(F)F)no2)c1 (stereo partly drawn) [Compound 237B, N-{[3-(4-{[(3S,4R)-3-fluoro-1-methylpiperidin-4-yl]amino}-1-(2,2,2-trifluoroethyl)-1H-indol-2-yl)-1,2,4-oxadiazol-5-yl]methyl}-1-(1-hydroxypropan-2-yl)-1H-pyrrole-3-carboxamide] |
| * (* = 0 μM ≤ SC150 < 0.1 μM) | CN1CC[C@@H](Nc2cccc3c2cc(-c2noc(CNC(=O)c4ccn(CC(=O)O)c4)n2)n3CC(F)(F)F)[C@@H](F)C1 [Compound 238B, 2-[3-({[3-(4-{[(3S,4R)-3-fluoro-1-methylpiperidin-4-yl]amino}-1-(2,2,2-trifluoroethyl)-1H-indol-2-yl)-1,2,4-oxadiazol-5-yl]methyl}carbamoyl)-1H-pyrrol-1-yl]acetic acid] |
| * (* = 0 μM ≤ SC150 < 0.1 μM) | CC(C)Cn1ccc(C(=O)NCc2nc(-c3cc4c(N[C@@H]5CCN(C)C[C@@H]5F)cccc4n3CC(F)(F)F)no2)c1 [Compound 240B, N-{[3-(4-{[(3S,4R)-3-fluoro-1-methylpiperidin-4-yl]amino}-1-(2,2,2-trifluoroethyl)-1H-indol-2-yl)-1,2,4-oxadiazol-5-yl]methyl}-1-(2-methylpropyl)-1H-pyrrole-3-carboxamide] |
| * (* = 0 μM ≤ SC150 < 0.1 μM) | CN1CC[C@@H](Nc2cccc3c2cc(-c2noc(CNC(=O)c4cccc(N(C)C)c4)n2)n3CC(F)(F)F)[C@@H](F)C1 [Compound 242B, 3-(dimethylamino)-N-{[3-(4-{[(3S,4R)-3-fluoro-1-methylpiperidin-4-yl]amino}-1-(2,2,2-trifluoroethyl)-1H-indol-2-yl)-1,2,4-oxadiazol-5-yl]methyl}benzamide] |
| * (* = 0 μM ≤ SC150 < 0.1 μM) | CC(O)Cn1ccc(C(=O)NCc2nc(-c3cc4c(N[C@@H]5CCN(C)C[C@@H]5F)cccc4n3CC(F)(F)F)no2)c1 (stereo partly drawn) [Compound 244B, N-{[3-(4-{[(3S,4R)-3-fluoro-1-methylpiperidin-4-yl]amino}-1-(2,2,2-trifluoroethyl)-1H-indol-2-yl)-1,2,4-oxadiazol-5-yl]methyl}-1-(2-hydroxypropyl)-1H-pyrrole-3-carboxamide] |

Second part, the compound before the results:

| SMILES | Y220C SC150 (μM) |
| --- | --- |
| CN1CCN(C[C@@H]2C[C@H]2C(=O)NCc2nc(-c3cc4c(N[C@@H]5CCN(C)C[C@@H]5F)cccc4n3CC(F)(F)F)no2)CC1 [Compound 234B, (1R,2R)-N-{[3-(4-{[(3S,4R)-3-fluoro-1-methylpiperidin-4-yl]amino}-1-(2,2,2-trifluoroethyl)-1H-indol-2-yl)-1,2,4-oxadiazol-5-yl]methyl}-2-[(4-methylpiperazin-1-yl)methyl]cyclopropane-1-carboxamide] | * (* = 0 μM ≤ SC150 < 0.1 μM) |
| CN1CC[C@@H](Nc2cccc3c2cc(-c2noc(CNC(=O)c4cn(C)nn4)n2)n3CC(F)(F)F)[C@@H](F)C1 [Compound 236B, N-{[3-(4-{[(3S,4R)-3-fluoro-1-methylpiperidin-4-yl]amino}-1-(2,2,2-trifluoroethyl)-1H-indol-2-yl)-1,2,4-oxadiazol-5-yl]methyl}-1-methyl-1H-1,2,3-triazole-4-carboxamide] | * (* = 0 μM ≤ SC150 < 0.1 μM) |
| CN1CC[C@@H](Nc2cccc3c2cc(-c2noc(CNC(=O)[C@@H]4CC4(C)C)n2)n3CC(F)(F)F)[C@@H](F)C1 [Compound 239B, (1R)-N-{[3-(4-{[(3S,4R)-3-fluoro-1-methylpiperidin-4-yl]amino}-1-(2,2,2-trifluoroethyl)-1H-indol-2-yl)-1,2,4-oxadiazol-5-yl]methyl}-2,2-dimethylcyclopropane-1-carboxamide] | * (* = 0 μM ≤ SC150 < 0.1 μM) |
| CN1CC[C@@H](Nc2cccc3c2cc(-c2noc(CNC(=O)c4ccn(CC5CC5)c4)n2)n3CC(F)(F)F)[C@@H](F)C1 [Compound 241B, 1-(cyclopropylmethyl)-N-{[3-(4-{[(3S,4R)-3-fluoro-1-methylpiperidin-4-yl]amino}-1-(2,2,2-trifluoroethyl)-1H-indol-2-yl)-1,2,4-oxadiazol-5-yl]methyl}-1H-pyrrole-3-carboxamide] | * (* = 0 μM ≤ SC150 < 0.1 μM) |
| CN1CC[C@@H](Nc2cccc3c2cc(-c2noc(CNC(=O)c4ccc(N5CCCC5)cc4)n2)n3CC(F)(F)F)[C@@H](F)C1 [Compound 243B, N-{[3-(4-{[(3S,4R)-3-fluoro-1-methylpiperidin-4-yl]amino}-1-(2,2,2-trifluoroethyl)-1H-indol-2-yl)-1,2,4-oxadiazol-5-yl]methyl}-4-(pyrrolidin-1-yl)benzamide] | * (* = 0 μM ≤ SC150 < 0.1 μM) |
| CN1CC[C@@H](Nc2cccc3c2cc(-c2noc(CNC(=O)[C@@H]4C[C@H]4CN4CCOCC4)n2)n3CC(F)(F)F)[C@@H](F)C1 [Compound 245B, (1R,2R)-N-{[3-(4-{[(3S,4R)-3-fluoro-1-methylpiperidin-4-yl]amino}-1-(2,2,2-trifluoroethyl)-1H-indol-2-yl)-1,2,4-oxadiazol-5-yl]methyl}-2-[(morpholin-4-yl)methyl]cyclopropane-1-carboxamide] | * (* = 0 μM ≤ SC150 < 0.1 μM) |
| CC(C)NC[C@@H]1C[C@H]1C(=O)NCc1nc(-c2cc3c(N[C@@H]4CCN(C)C[C@@H]4F)cccc3n2CC(F)(F)F)no1 [Compound 246B, (1R,2R)-N-{[3-(4-{[(3S,4R)-3-fluoro-1-methylpiperidin-4-yl]amino}-1-(2,2,2-trifluoroethyl)-1H-indol-2-yl)-1,2,4-oxadiazol-5-yl]methyl}-2-{[(propan-2-yl)amino]methyl}cyclopropane-1-carboxamide] | * (* = 0 μM ≤ SC150 < 0.1 μM) |
| CCCNC[C@@H]1C[C@H]1C(=O)NCc1nc(-c2cc3c(N[C@@H]4CCN(C)C[C@@H]4F)cccc3n2CC(F)(F)F)no1 [Compound 247B, (1R,2R)-N-{[3-(4-{[(3S,4R)-3-fluoro-1-methylpiperidin-4-yl]amino}-1-(2,2,2-trifluoroethyl)-1H-indol-2-yl)-1,2,4-oxadiazol-5-yl]methyl}-2-[(propylamino)methyl]cyclopro-pane-1-carboxamide] | * (* = 0 μM ≤ SC150 < 0.1 μM) |
| CN1CC[C@@H](Nc2cccc3c2cc(-c2noc(CNC(=O)c4ccn(CCC(=O)O)c4)n2)n3CC(F)(F)F)[C@@H](F)C1 [Compound 248B, 3-[3-({[3-(4-{[(3S,4R)-3-fluoro-1-methylpiperidin-4-yl]amino}-1-(2,2,2-trifluoroethyl)-1H-indol-2-yl)-1,2,4-oxadiazol-5-yl]methyl}carbamoyl)-1H-pyrrol-1-yl]propanoic acid] | * (* = 0 μM ≤ SC150 < 0.1 μM) |
